# From patent EP0727211A1, “Use of src SH2 specific compounds to treat a bone resorption disease” (SMITHKLINE BEECHAM CORPORATION, priority 1995, dated 1996)
# Biological target: T1, human hcp SH2 domain (Homo sapiens, UniProt P29350)
# T1 sequence (P29350 4-100): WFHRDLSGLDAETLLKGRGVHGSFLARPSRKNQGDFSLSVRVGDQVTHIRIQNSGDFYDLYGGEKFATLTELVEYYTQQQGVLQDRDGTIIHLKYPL
# Test: SH2 domain / pY peptide binding assay (ELISA-based, 96 well plate), hcp SH2
# Details: cloned human SH2 domain fusion protein; 0.1 uM biotinylated pY peptide; Table I; read-out: Hcp (IC50)
# Procedure: The inhibitory activity of compounds at the different human SH2 domains was determined in vitro using SH2 domains expressed as fusion proteins in E. coli. The SH2 domains used herein were the human forms of the src SH2 domain, Grb2 SH2 domain, lck SH2 domain, fyn SH2 domain, SH-PTP2 SH2 domain, p85 SH2 domain and hcp SH2 domain.
# The fusion proteins containing the src, lck and hcp SH2 domains were expressed as the general sequence: DET1-DET2-spacer-ek-SH2, where DETI, DET2, spacer, ek and SH2 are as described below. DET1 ("defined epitope tag 1") (SEQ ID NO: 1) is an 11 amino acid sequence found in the Human Immunodeficiency Virus Type 1 (HIV-1) envelope protein gp120 (or gp160). Monoclonal antibodies to various epitopes of HIV-1 gp120 (or gp160) are known in the art, see, for example U.S. Patent 5,166,050. One preferred example is monoclonal antibody 178.1 (see, e.g., Thiriart et al., J. Immunol., 143:1832-1836 (1989)), which was prepared by immunization of mice with a yeast-expressed HIV-1 gp160 molecule from strain BH10 (Ratner et al., Nature, 313:277-284 (1985)). This tag was used for detection of expression (by Western blot), for purification of the protein (by affinity chromatography), and for configuring assays in which the fusion protein was captured or immobilized using the 178.1 antibody. DET2 is a hexahistidine sequence tag (SEQ ID NO: 2) which binds to nickel-containing resins and was used for purification purposes. Spacer (SEQ ID NO: 3) was utilized to design a BamH1 restriction site at the indicated position of the construct. The term -ekrefers to a recognition sequence (SEQ ID NO: 4) for the enterokinase protease which provides for the optional removal of the tags from the SH2 domain, thus producing an SH2 domain that contains no extraneous amino acids. SH2 domains which contain no extraneous amino acids are preferable to tagged protein for crystallography studies. SH2 refers to the SH2 domains of different proteins.
# Cloning and expression of human hcp SH2 domain containing tags and an enterokinase proteolytic cleavage site (DET1-DET2-spacer-ek-hcp SH2).
# A DNA sequence encoding protein ek-hcp SH2 was reverse transcriptase-PCR amplified from human fetal liver RNA. RNA isolation used Tri-Reagent (Molecular Research Center Inc.) and the Reverse Transcriptase system (GIBCO-BRL) according to the manufacture's instructions. PCR was carried out using the following primers: [formula]
# The PCR product was digested with BglII and XbaI, followed by isolation of the digested fragment on an agarose gel. The fragment was ligated into BamHI-XbaI-digested expression vector containing the tagged human src gene DET1-DET2-spacer-ek-src SH2 described in Procedure 2 above. In that vector, the BamHI site is located in between the coding regions for DET2 and ek, and the XbaI site is located after the 3' end of the SH2 coding region. Thus, the ek-hcp SH2 sequence replaced the ek-src SH2 sequence in the above vector. The ligation reaction was used to transform E. coli MM294cI^+. The construct containing DET1-DET2-spacer-ek-hcp SH2 was confirmed by DNA sequencing (SEQ ID NO: 7) and used to transform E. coli GI698 (Invitrogen Corporation, San Diego, CA). Induction of the phage lambda promoter was induced by addition of tryptophan to the culture medium to 10 mg/ml, per the manufacture's instructions. A Coomassie-Blue-stained, Western-blot-positive induced protein band with an apparent molecular weight of 15,000 was observed after tryptophan induction of cells growing at 30° C.
# Cells were lysed at neutral pH by sonication in the presance of lysozyme. After centrifugation, the insoluble pellet was solubilized with 8 M urea in Tris buffer pH 8 and bound onto a Ni^++NTA column. The resin was washed with equilibration buffer (Tris buffer pH 8 containing 0.5 M NaCl, 8 M urea and 5 mM BME) and the same buffer containing 15 mM imidazole. […]
row,Molecule,IC50 [nM]
1,"Cc1nc2sc3c(c2c2[nH][nH]c(=O)c12)CCC1(C3)OCCO1 [Compound 3, 8,8-Ethylenedioxy-2,3,7,8,9,10-hexahydro-4-methyl-1H-benzo[b]thieno[2,3-b]pyrazolo[3,4-d]pyridin-3-one]",1200
2,"Cc1nc2sc3c(c2c2c1c(=O)[nH]n2C)CCC1(C3)OCCO1 [Compound 5, 1,4-Dimethyl-8,8-ethylenedioxy-2,3,7,8,9,10-hexahydro-1H-benzo[b]thieno[2,3-b]pyrazolo[3,4-d]pyridin-3-one]",100
3,"Cc1nc2sc3c(c2c2[nH][nH]c(=O)c12)CCCC3 [Compound 10, 2,3,7,8,9,10-Hexahydro-4-methyl-1H-benzo[b]thieno[2,3-b]pyrazolo[3,4-d]pyridin-3-one]",1200
4,4-acetamido-benzamido-trans-4-methyl-cyclohexyl-N-1-(amino-R-2-(methoxy methyl)-pyrrolidine) carboxamide [Compound 8],> 100000

# Next, values leading:
row,IC50 [nM],Molecule
1,30000,"Cc1ccc(C(=O)c2ccc(C(=O)c3ccc(CC=O)cc3)cc2)cc1 [Compound 4, 4-[4-(4-Methylbenzoyl)benzoyl]phenylacetaldehyde]"
2,12000,"CCCNC(=O)[C@H]1CC[C@H](CNC(=O)/C=C/c2ccc(C=O)cc2)CC1 [Compound 9, 4-formyl-E-cinnamido-trans-4-methyl-cyclohexyl-N-(propyl) carboxamide]"
3,> 300000,"CCCCCCNC(=O)[C@H]1CC[C@H](CNC(=O)c2ccc([N+](=O)[O-])cc2)CC1 [Compound 7, 4-nitro-benzamido-trans-4-methyl-cyclohexyl-N-hexyl carboxamide]"

# Same assay, conditions: read-out: Hcp (IC50); cloned human SH2 domain fusion protein; 0.1 uM biotinylated pY peptide; Table I
row,Molecule,IC50 [nM]
1,"N[C@@H](Cc1cc(Br)c(Oc2ccc(O)c(Cc3ccc(O)nn3)c2)c(Br)c1)C(=O)O [Compound 2, L-3,5-Dibromo-3'-(6-oxo-3(1H)-pyridazinylmethyl)-thyronine]",900
